Measured values published in patent US20130217664A1, “NOVEL COMPOUNDS USEFUL FOR THE TREATMENT OF DEGENERATIVE AND INFLAMMATORY DISEASES” (priority 2012, published 2013).

Key:
Assay type in all cases: biochemical
[1] = molecular target: T1, human TYK2 (Homo sapiens, UniProt P29597); experiment: TYK2 inhibition assay; settings: recombinant human TYK2 catalytic domain, polyGT substrate
T1 construct: catalytic domain (amino acids 871-1187; catalog number 08-147); purchased Carna Biosciences 08-147
T1 sequence (P29597 871-1187): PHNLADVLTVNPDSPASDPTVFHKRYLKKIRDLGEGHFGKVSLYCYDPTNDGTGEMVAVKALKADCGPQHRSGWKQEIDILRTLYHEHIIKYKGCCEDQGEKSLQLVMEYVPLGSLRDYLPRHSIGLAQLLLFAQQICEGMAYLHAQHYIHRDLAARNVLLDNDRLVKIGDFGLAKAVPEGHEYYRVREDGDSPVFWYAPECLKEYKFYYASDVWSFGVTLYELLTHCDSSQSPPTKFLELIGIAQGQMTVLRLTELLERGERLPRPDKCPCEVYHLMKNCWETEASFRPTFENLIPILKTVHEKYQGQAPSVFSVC
Description: 1.4 TYK2 Inhibition Assay
After 90 min at 30° C., reactions were stopped by adding 25 μL/well of 150 mM phosphoric acid. […] Plates were washed 6 times with 300 μL per well of a 75 mM phosphoric acid solution and the bottom of the plates was sealed. 40 μL/well of Microscint-20 was added, the top of the plates was sealed and readout was performed using the Topcount (Perkin Elmer). Kinase activity was calculated by subtracting counts per min (cpm) obtained in the presence of a positive control inhibitor (10 μM staurosporine) from cpm obtained in the presence of vehicle. The ability of a test compound to inhibit this activity was determined as:
(§1) Percentage inhibition=((cpm determined for sample with test compound present−cpm determined for sample with positive control inhibitor)divided by(cpm determined in the presence of vehicle−cpm determined for sample with positive control inhibitor))*100.
Dose dilution series were prepared for the compounds enabling the testing of dose-response effects in the TYK2 assay and the calculation of the IC50 for each compound.

[2] = molecular target: T2, human JAK3 (Homo sapiens, UniProt P52333); experiment: JAK3 inhibition assay; settings: recombinant human JAK3 catalytic domain; polyGT substrate
T2 construct: catalytic domain (amino acids 781-1124; catalog number PV3855); purchased Invitrogen PV3855
Description: 1.3 JAK3 Inhibition Assay
0.5 ng JAK3 protein was incubated with 2.5 μg polyGT substrate (Sigma catalog number P0275) in kinase reaction buffer (25 mM Tris pH 7.5, 0.5 mM EGTA, 10 mM MgCl2, 2.5 mM DTT, 0.5 mM Na3VO4, 5 mM b-glycerolphosphate, 0.01% Triton X-100, 1 μM non-radioactive ATP, 0.25 μCi 33P-gamma-ATP (GE Healthcare, catalog number AH9968) final concentrations) with or without 5 μL containing test compound or vehicle (DMSO, 1% final concentration), in a total volume of 25 μL, in a polypropylene 96-well plate (Greiner, V-bottom). After 45 min at 30° C., reactions were stopped by adding 25 μL/well of 150 mM phosphoric acid. […] Plates were washed 6 times with 300 μL per well of a 75 mM phosphoric acid solution and the bottom of the plates was sealed. 40 μL/well of Microscint-20 was added, the top of the plates was sealed and readout was performed using the Topcount (Perkin Elmer). Kinase activity was calculated by subtracting counts per min (cpm) obtained in the presence of a positive control inhibitor (10 μM staurosporine) from cpm obtained in the presence of vehicle. The ability of a test compound to inhibit this activity was determined as:
as §1
(§2) Dose dilution series were prepared for the compounds enabling the testing of dose-response effects in the JAK3 assay and the calculation of the IC50 for each compound. Each compound was routinely tested at concentration of 20 μM followed by a 1/5 serial dilution, 10 points in a final concentration of 1% DMSO.

[3] = molecular target: T3, human JAK1 (Homo sapiens, UniProt P23458); experiment: JAK1 inhibition assay (polyGT substrate / Ulight-JAK1 peptide); settings: recombinant human JAK1 catalytic domain; polyGT or Ulight-JAK1 peptide assay
T3 construct: catalytic domain, amino acids 866-1154; catalog number PV4774; purchased Invitrogen PV4774
Description: 1.1 JAK1 Inhibition Assay
1.1.1 JAK1 Assay polyGT Substrate
After 45 min at 30° C., reactions are stopped by adding of 25 μL/well of 150 mM phosphoric acid. […] Plates are washed 6 times with 300 μL per well of a 75 mM phosphoric acid solution and the bottom of the plates is sealed. 40 μL/well of Microscint-20 is added, the top of the plates is sealed and readout is performed using the Topcount (Perkin Elmer). Kinase activity is calculated by subtracting counts per min (cpm) obtained in the presence of a positive control inhibitor (10 μM staurosporine) from cpm obtained in the presence of vehicle. The ability of a test compound to inhibit this activity is determined as:
as §1
Dose dilution series are prepared for the compounds enabling the testing of dose-response effects in the JAK1 assay and the calculation of the IC50 for each compound.
1.1.2 JAK1 Ulight-JAK1 Peptide Assay
After 60 min at room temperature, reactions were stopped by adding 20 μL/well of detection mixture (1× detection buffer (Perkin Elmer, catalog number CR97-100C), 0.5 nM Europium-anti-phosphotyrosine (PT66) (Perkin Elmer, catalog number AD0068), 10 mM EDTA). […] Kinase activity was calculated by subtracting relative fluorescence units (RFU) obtained in the presence of a positive control inhibitor (10 μM staurosporine) from RFU obtained in the presence of vehicle. The ability of a test compound to inhibit this activity was determined as:
Percentage inhibition=((RFU determined for sample with test compound present−RFU determined for sample with positive control inhibitor)divided by(RFU determined in the presence of vehicle−RFU determined for sample with positive control inhibitor))*100.
as §2, with “JAK1” for “JAK3”, “the” for “each”, “is” for “was”, “DMSO. […] The data are expressed as the average IC50 from the assays±standard error of the mean.” for “DMSO.”

T2 sequence (P52333 781-1124): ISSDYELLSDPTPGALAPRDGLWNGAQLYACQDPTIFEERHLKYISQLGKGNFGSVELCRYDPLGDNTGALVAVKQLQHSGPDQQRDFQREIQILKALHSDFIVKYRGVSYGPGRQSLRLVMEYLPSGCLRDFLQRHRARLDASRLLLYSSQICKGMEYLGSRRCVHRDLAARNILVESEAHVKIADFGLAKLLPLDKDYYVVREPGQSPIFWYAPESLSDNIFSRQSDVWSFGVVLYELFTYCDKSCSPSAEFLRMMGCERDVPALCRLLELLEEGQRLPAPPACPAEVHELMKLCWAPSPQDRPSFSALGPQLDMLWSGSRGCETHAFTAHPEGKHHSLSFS
T3 sequence (P23458 866-1154): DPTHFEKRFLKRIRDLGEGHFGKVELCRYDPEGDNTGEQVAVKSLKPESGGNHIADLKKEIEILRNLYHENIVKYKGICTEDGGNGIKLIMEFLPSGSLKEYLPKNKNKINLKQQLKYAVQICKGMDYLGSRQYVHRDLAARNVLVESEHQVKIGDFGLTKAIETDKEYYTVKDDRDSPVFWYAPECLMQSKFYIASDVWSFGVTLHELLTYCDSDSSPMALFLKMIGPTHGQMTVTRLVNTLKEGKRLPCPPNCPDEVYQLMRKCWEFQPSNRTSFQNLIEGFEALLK

IC50 [1] [nM]	IC50 [2] [nM]	IC50 [3] [nM]	SMILES
101 to 500	501 to 1000	–	CCc1ccccc1N(C)c1cc2c(cn1)ncn2C [Compound 16, (2-Ethyl-phenyl)-methyl-(1-methyl-1H-imidazo[4,5-c]pyridin-6-yl)-amine]
0.01 to 100	101 to 500	0.01 to 100	CCc1cc(-c2ccc(OC)nc2)ccc1N(C)c1cc2c(cn1)ncn2C [Compound 130, N-(2-ethyl-4-(6-methoxypyridin-3-yl)phenyl)-N,1-dimethyl-1H-imidazo[4,5-c]pyridin-6-amine]
> 1000	> 1000	101 to 500	CCc1cc(C(=O)NCC(C)(C)O)ccc1N(C)c1cc2c(cn1)ncn2C [Compound 161, 3-ethyl-N-(2-hydroxy-2-methylpropyl)-4-(methyl(1-methyl-1H-imidazo[4,5-c]pyridin-6-yl)amino)benzamide]
0.01 to 100	101 to 500	0.01 to 100	CCc1cc(-c2ccc(C#N)cc2)ccc1N(C)c1cc2c(cn1)ncn2C [Compound 162, 3′-ethyl-4′-(methyl(1-methyl-1H-imidazo[4,5-c]pyridin-6-yl)amino)biphenyl-4-carbonitrile]
> 1000	> 1000	101 to 500	CCc1cc(C(=O)NCC2CCCCN2C)ccc1N(C)c1cc2c(cn1)ncn2C (centres unmarked) [Compound 165, 3-ethyl-4-(methyl(1-methyl-1H-imidazo[4,5-c]pyridin-6-yl)amino)-N-((1-methylpiperidin-2-yl)methyl)benzamide]
> 1000	> 1000	0.01 to 100	CCc1cc(C(=O)NC2(C#N)CCN(C)CC2)ccc1N(C)c1cc2c(cn1)ncn2C [Compound 166, N-(4-cyano-1-methylpiperidin-4-yl)-3-ethyl-4-(methyl(1-methyl-1H-imidazo[4,5-c]pyridin-6-yl)amino)benzamide]
0.01 to 100	101 to 500	0.01 to 100	CCc1cc(C(=O)NC#N)ccc1N(C)c1cc2c(cn1)ncn2C [Compound 179, N-Cyano-3-ethyl-4-(methyl(1-methyl-1H-imidazo[4,5-c]pyridin-6-yl)amino)benzamide]
101 to 500	101 to 500	0.01 to 100	CCc1cc(O[C@H]2CCN(S(C)(=O)=O)C2)ccc1N(C)c1cc2c(cn1)ncn2C [Compound 260, (S)-N-(2-ethyl-4-(1-(methylsulfonyl)pyrrolidin-3-yloxy)phenyl)-N,1-dimethyl-1H-imidazo[4,5-c]pyridin-6-amine]
0.01 to 100	101 to 500	0.01 to 100	COc1cc(-c2cccs2)ncc1N(C)c1cc2c(cn1)ncn2C [Compound 264]
0.01 to 100	0.01 to 100	0.01 to 100	CCc1cc(-c2ccsc2)ncc1N(C)c1cc2c(cn1)ncn2C [Compound 288, (4-Ethyl-6-thiophen-3-yl-pyridin-3-yl)-methyl-(1-methyl-1H-imidazo[4,5-c]pyridin-6-yl)-amine]
0.01 to 100	0.01 to 100	0.01 to 100	CCc1cc(-c2cccs2)ncc1N(C)c1cc2c(cn1)ncn2C [Compound 289]
0.01 to 100	0.01 to 100	0.01 to 100	CCc1cc(C2CN(S(C)(=O)=O)C2)ccc1N(C)c1cc2c(cn1)ncn2C [Compound 290, [2-Ethyl-4-(1-methanesulfonyl-azetidin-3-yl)-phenyl]-methyl-(1-methyl-1H-imidazo[4,5-c]pyridin-6-yl)-amine]
101 to 500	> 1000	0.01 to 100	CCc1cc(CNC2CCN(C(=O)OC(C)(C)C)C2)ccc1N(C)c1cc2c(cn1)ncn2C (centres unmarked) [Compound 291, 3-{3-Ethyl-4-[methyl-(1-methyl-1H-imidazo[4,5-c]pyridin-6-yl)-amino]-benzylamino}-pyrrolidine-1-carboxylic acid tert-butyl ester]
101 to 500	0.01 to 100	0.01 to 100	CCc1cc(CN(C)S(=O)(=O)C2CC2)ccc1N(C)c1cc2c(cn1)ncn2C [Compound 292, Cyclopropanesulfonic acid {3-ethyl-4-[methyl-(1-methyl-1H-imidazo[4,5-c]pyridin-6-yl)-amino]-benzyl}-methyl-amide]
> 1000	> 1000	0.01 to 100	CCc1cc(CNC2CCNC2)ccc1N(C)c1cc2c(cn1)ncn2C (centres unmarked) [Compound 293, [2-Ethyl-4-(pyrrolidin-3-ylaminomethyl)-phenyl]-methyl-(1-methyl-1H-imidazo[4,5-d]pyridin-6-yl)-amine]
0.01 to 100	0.01 to 100	0.01 to 100	CCc1cc(CN(C)S(=O)(=O)CC)ccc1N(C)c1cc2c(cn1)ncn2C [Compound 294, Ethanesulfonic acid {3-ethyl-4-[methyl-(1-methyl-1H-imidazo[4,5-c]pyridin-6-yl)-amino]-benzyl}-methyl-amide]
